pIC50: −log10 of the molar value. Where no end group is shown, it is not given here.
Columns and labels:
[1] = biological target: T1, insulin degrading enzyme (IDE) (Homo sapiens, UniProt P14735); test: IDE enzymatic activity inhibition; type: biochemical
T1 sequence (P14735 1-1019): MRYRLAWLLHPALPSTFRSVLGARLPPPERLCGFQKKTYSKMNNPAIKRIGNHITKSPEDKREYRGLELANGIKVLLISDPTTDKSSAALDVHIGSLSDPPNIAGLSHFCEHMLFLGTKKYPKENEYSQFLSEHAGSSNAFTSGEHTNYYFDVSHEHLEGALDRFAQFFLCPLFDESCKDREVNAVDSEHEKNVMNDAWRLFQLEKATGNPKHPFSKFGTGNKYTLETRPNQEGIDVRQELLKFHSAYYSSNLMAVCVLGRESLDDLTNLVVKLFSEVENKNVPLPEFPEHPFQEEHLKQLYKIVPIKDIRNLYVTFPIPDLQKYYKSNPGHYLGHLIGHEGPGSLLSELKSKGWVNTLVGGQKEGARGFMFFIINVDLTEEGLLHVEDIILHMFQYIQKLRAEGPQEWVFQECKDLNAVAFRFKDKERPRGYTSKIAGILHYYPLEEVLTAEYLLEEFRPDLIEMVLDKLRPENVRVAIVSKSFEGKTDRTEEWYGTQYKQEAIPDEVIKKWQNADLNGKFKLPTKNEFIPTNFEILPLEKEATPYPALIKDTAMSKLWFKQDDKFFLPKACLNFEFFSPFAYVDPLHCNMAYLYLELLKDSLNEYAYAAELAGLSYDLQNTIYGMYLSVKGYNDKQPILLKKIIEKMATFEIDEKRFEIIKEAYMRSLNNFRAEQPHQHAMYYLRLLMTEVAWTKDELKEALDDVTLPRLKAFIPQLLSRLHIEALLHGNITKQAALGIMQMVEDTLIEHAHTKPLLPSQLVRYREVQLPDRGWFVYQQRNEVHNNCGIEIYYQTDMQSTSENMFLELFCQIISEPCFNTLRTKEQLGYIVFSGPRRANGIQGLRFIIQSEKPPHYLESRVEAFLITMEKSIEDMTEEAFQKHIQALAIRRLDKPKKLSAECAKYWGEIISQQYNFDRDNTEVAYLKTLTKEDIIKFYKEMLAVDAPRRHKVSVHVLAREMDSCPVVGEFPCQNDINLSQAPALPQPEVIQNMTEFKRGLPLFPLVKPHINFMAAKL
Method: The IDE inhibitor of the present teachings specifically down-regulates the enzymatic activity of IDE. For instance, the IC50 of IDE is in the range of 10-200 nM as assayed for ADT-21. According to exemplary embodiments, the IDE inhibitor of the present invention is capable of down-regulating by at least 5%, at least 10%, at least 15%, at least 20%, at least 30%, at least 40%, at least 50%, at least 60%, at least 70%, at least 80%, at least 90% or at least 100% the enzymatic activity of IDE.
Any method known in the art for measuring IDE activity may be used to assess down-regulation in IDE. For example, one method which may be used comprises the use of an Insulysin/IDE Immunocapture Activity Assay Kit (available e.g. from InnoZyme™, Calbiochem). Using this kit ELISA plates are first coated with the target enzyme (i.e. IDE) and then the plates are incubated with a substrate (e.g. insulin). The enzymatic activity is measured in comparison to wells without the substrate using for example a FRET substrate, Mca-GGFLRKHGQ-EDDnp (SEQ ID NO: 79). Cleavage of the scissile amide bond between R and K releases the fluorophore from the quenching molecule, Dnp, resulting in an increase in fluorescence. The increase in fluorescence is measured using an excitation wavelength of 320 nm and an emission wavelength of 405 nm.

[2] = Toxicity monitoring (body weight, eating habits, tail tone, mobility) in APP mice; type: in vivo; details: 1.07 μg/mouse every other day for 4 months
Method: 8-week-old APP/PSI mice were used as previously described (Oakley et al 2006, J Neurosci 26: 10129-10140). Mice were treated with either ADT21 (1.07 μg/mouse) or PBS every other day for 4 months.
Contextual fear conditioning was tested as described previously (Carlos A. et al., 2005) Mice were placed within the conditioning chamber (Coulbourn Instruments, Allentown, Pa.) (7″W×7″D×12″H) for 3 min before the onset of the unconditioned stimulus (US; footshock; 1 s/1 mA) through the cage grid floor (Model H10-11M-TC-SF) from a Coulbourn Instruments shocker (Model H13-15). Activation was detected via a camera above the cage (ACT-VP-01) with a special algorithm for motion detection, to allow them to develop a representation of the context via exploration. After the shock, mice were left in the chamber for 2 min (immediate freezing) and returned to their home cages. 24 hours after the training session, the mice were again placed in the chamber and tested for 4 min without any footshocks. The chamber was isolated in a quiet environment using the noise sealed box (H10-24T Coulbourn Instruments). Freezing response was scored by using the FreezeFrame automated system (Coulbourn Instruments). Furthermore, mice were daily monitored for body weight, eating habits, tail tone and mobility.

With ITNPGSGGSSVLRYDDFHTD [ADT21] the pIC50 [1] was 6.70 to 8.00 and the “changes in behavior indicating toxicity (body weight, eating habits, tail tone, mobility)” value [2] was “no changes in their behavior”.

From patent US8901074B2, “Methods of treating autoimmune diseases of the central nervous system (CNS) and neurodegenerative diseases” (Ramot at Tel-Aviv University, priority 2010, dated 2014)
